The assay addresses Envelope glycoprotein gp160 (Human immunodeficiency virus 1, UniProt Q6QLK5). Description: cell-free HIV fusion peptide-binding blockers – biochemical, uHTS, fluorescence dequenching, […] (AID 1986).

The source made the active and inactive calls. Cut-off read from the data, not from the text of the source: actives have a measured IC50 and inactives only a lower limit.

Sequence of Envelope glycoprotein gp160 (Q6QLK5 whole entry, the tested form may be a part): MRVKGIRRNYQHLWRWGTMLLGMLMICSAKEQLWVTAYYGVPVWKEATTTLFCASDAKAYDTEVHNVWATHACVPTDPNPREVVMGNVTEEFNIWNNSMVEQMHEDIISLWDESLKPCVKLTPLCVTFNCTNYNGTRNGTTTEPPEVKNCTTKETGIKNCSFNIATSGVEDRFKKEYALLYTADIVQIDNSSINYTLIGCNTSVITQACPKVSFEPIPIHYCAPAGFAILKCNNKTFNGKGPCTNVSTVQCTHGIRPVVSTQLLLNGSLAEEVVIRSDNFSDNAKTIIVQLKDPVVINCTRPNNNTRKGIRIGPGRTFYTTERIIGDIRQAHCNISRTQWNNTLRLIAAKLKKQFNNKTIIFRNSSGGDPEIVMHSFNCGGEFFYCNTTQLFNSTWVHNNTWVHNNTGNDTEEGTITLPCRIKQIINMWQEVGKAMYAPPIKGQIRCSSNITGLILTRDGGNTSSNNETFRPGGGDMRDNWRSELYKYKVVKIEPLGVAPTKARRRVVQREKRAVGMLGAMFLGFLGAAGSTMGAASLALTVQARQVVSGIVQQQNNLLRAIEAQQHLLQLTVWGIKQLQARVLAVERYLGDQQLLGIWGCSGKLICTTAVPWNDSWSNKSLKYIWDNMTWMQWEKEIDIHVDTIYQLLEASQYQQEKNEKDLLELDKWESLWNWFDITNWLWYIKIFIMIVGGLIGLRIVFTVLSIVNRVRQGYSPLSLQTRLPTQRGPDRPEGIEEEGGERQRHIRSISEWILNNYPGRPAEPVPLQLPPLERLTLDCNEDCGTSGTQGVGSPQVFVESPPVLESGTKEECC

In general, IC50 refers to the concentration needed to halve the response being measured. As for `COc1ccc(/C=C2/SC(=S)N(CC(=O)O)C2=O)cc1OCc1ccc(Cl)cc1`, the IC50 is 16.5 µM (active).
For the compound `COC(=O)c1sc(-c2ccc(C(C)(C)C)cc2)cc1NC(=O)c1ccccc1C(=O)O`, the IC50 is 18.5 µM (active).

(Values after ChEMBL document CHEMBL1201862, “PubChem BioAssay data set” (2004).)
